Experimental data as given in patent US6703042B1, “Salts of L-carnitine and lower alkanoyl L-carnitine” (Sigma-Tau Industries Farmaceutiche Riunite S.p.A., priority 1999, dated 2004).
Counter-ions that a name gives are not always drawn.

Experiments:
[1] = Hygroscopicity: increase in weight and appearance after exposure to humidity; format: physicochemical; conditions: exposure to 70±5% relative humidity, at 25° C. for 24 hours
[2] = Hygroscopicity of the solid as stated in the preparation examples; format: physicochemical
[3] = background statement; cited from earlier work

Compound | Appearance [1] | Increase in weight (%) [1] [%] | Hygroscopicity of the solid [2] | Hygroscopicity (known salts, prior art) [3]
Acetyl L-carnitine L-isoleucinate hydrochloride [Example 1] | no variation | 0.2 | non-hygroscopic | –
Acetyl L-carnitine L-glutaminate Hydrochloride [Example 7] | no variation | 0.6 | non-hygroscopic | –
Acetyl L-carnitine L-arginate Hydrochloride [Example 5] | no variation | 0.45 | non-hygroscopic | –
C[N+](C)(C)C[C@H](O)CC(=O)O.C[N+](C)(C)C[C@H](O)CC(=O)O.O=C([O-])C(O)C(O)C(=O)[O-] [L(−)-carnitine tartrate] | – | – | – | non-hygroscopic
CC(=O)O[C@H](CC(=O)[O-])C[N+](C)(C)C [Acetyl-L-carnitine inner salt, reference compound] | deliquescent | 19 | Very Hygroscopic | –
Acetyl L-carnitine L-glutamate Hydrochloride [Example 6] | no variation | 0.4 | non-hygroscopic | –
L(−)-carnitine acid fumarate | – | – | – | non-hygroscopic
CC(=O)O[C@H](CC(=O)O)C[N+](C)(C)C.[Cl-] [Acetyl-L-carnitine chloride, reference compound] | clumped mass | 8 | – | –
Acetyl L-carnitine L-cysteinate Hydrochloride [Example 4] | no variation | 0.6 | non-hygroscopic | –
Cl.N[C@@H](CS)C(=O)O [L-cysteine Hydrochloride] | – | – | Very Hygroscopic | –
Acetyl L-carnitine L-asparaginate Hydrochloride [Example 9] | no variation | 0.3 | non-hygroscopic | –
CCC(=O)O[C@H](CC(=O)O)C[N+](C)(C)C.[Cl-] [Propionyl-L-carnitine chloride, reference compound] | deliquescent | 15 | – | –
C[N+](C)(C)C[C@H](O)CC(=O)[O-] [L-carnitine inner salt, reference compound] | deliquescent | 23 | – | –
Acetyl L-carnitine L-aspartate Hydrochloride [Example 8] | no variation | 0.7 | non-hygroscopic | –
CC(=O)O[C@H](CC(=O)O)C[N+](C)(C)C.O=C([O-])/C=C/C(=O)O [acetyl L(−)-carnitine acid fumarate] | – | – | – | strongly hygroscopic
